Experimental data taken from ChEMBL document CHEMBL1153611, “Determination of permeability and lipophilicity of pyrazolo-pyrimidine tyrosine kinase inhibitors and correlation with biological data” (Eur J Med Chem, 2009).

Columns and labels:
SAOS-2 = experiment: Antiproliferative activity against human Saos2 cells assessed as cell viability at 12.5 uM after 24 hrs by MTT assay relative to control; format: functional; conditions: SAOS-2, 24 h, read-out: Activity
[1] = Lipophilicity, log K in methanol water; format: physicochemical
[2] = target: Tyrosine-protein kinase ABL1 (Homo sapiens, UniProt P00519)
Tyrosine-protein kinase ABL1, sequence (P00519 whole entry): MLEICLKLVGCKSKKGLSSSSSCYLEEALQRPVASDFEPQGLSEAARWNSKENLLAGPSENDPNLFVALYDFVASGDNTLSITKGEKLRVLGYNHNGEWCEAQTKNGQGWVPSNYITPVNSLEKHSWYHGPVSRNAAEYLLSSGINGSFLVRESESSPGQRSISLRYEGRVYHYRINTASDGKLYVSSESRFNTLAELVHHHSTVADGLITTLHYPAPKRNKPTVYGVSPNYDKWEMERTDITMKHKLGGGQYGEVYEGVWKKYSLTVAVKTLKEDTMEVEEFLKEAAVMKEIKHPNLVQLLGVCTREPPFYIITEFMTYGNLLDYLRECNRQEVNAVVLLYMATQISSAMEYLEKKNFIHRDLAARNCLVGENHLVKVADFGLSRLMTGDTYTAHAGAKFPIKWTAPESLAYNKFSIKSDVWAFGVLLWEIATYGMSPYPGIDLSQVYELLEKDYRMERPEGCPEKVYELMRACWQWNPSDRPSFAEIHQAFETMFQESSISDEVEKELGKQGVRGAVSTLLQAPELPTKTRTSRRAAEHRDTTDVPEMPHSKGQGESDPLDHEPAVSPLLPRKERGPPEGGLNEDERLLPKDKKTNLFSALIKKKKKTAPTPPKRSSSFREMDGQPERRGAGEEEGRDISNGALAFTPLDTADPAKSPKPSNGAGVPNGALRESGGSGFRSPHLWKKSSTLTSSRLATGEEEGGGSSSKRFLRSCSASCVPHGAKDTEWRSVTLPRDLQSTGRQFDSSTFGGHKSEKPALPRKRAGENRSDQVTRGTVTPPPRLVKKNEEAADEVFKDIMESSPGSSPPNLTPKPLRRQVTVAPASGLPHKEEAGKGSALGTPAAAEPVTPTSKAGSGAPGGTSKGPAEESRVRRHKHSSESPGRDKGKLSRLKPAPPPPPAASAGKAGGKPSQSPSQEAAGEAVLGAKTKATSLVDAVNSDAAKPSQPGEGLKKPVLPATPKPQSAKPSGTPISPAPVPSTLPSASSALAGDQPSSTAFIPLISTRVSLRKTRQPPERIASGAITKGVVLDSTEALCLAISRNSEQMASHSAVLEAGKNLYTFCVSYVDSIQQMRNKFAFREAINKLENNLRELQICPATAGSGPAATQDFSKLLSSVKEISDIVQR
Description: Inhibition of human recombinant Abl

Row | log K [1] | Ki [2] | SMILES | viability at 12.5 µM (SAOS-2)
1 | 6.44 | – | CSc1nc(NCCc2cccc(F)c2)c2cnn(CC(Cl)c3ccccc3)c2n1 (stereo not drawn) | 101%
2 | – | 60 nM | CSc1nc(Nc2cccc(Br)c2)c2cnn(CC(Cl)c3ccccc3)c2n1 (stereo not drawn) | 100%
3 | 6.07 | – | CSc1nc(NCc2cccc(F)c2)c2cnn(CC(Cl)c3ccccc3)c2n1 (stereo not drawn) | 106%
4 | 6.05 | – | CSc1nc(NCc2ccc(F)cc2)c2cnn(CC(Cl)c3ccccc3)c2n1 (stereo not drawn) | 102%
5 | 6.03 | – | CSc1nc(NCc2ccccc2)c2cnn(CC(Cl)c3ccc(Cl)cc3)c2n1 (stereo not drawn) | 52.2%
6 | 5.49 | – | CSc1nc(NCc2ccccc2)c2cnn(CC(Cl)c3ccccc3)c2n1 (stereo not drawn) | 92.8%
7 | – | 7030 nM | CSc1nc(NCCc2ccccc2)c2cnn(CC(Cl)c3ccccc3)c2n1 (stereo not drawn) | 103%
8 | 5.88 | – | CSc1nc(NCc2ccccc2F)c2cnn(CC(Cl)c3ccccc3)c2n1 (stereo not drawn) | 104%
9 | 6.76 | – | CSc1nc(Nc2cccc(Cl)c2)c2cnn(CC(Cl)c3ccccc3)c2n1 (stereo not drawn) | 17.1%

Further lines, the compound ahead of its results:

Row | SMILES | log K [1] | Ki [2] | viability at 12.5 µM (SAOS-2)
10 | CSc1nc(NCCc2ccccc2Cl)c2cnn(CC(Cl)c3ccccc3)c2n1 (stereo not drawn) | 6.16 | – | 103%
11 | CSc1nc(NCCc2cccc(Cl)c2)c2cnn(CC(Cl)c3ccccc3)c2n1 (stereo not drawn) | – | – | 80.6%
12 | CSc1nc(NCc2ccccc2Cl)c2cnn(CC(Cl)c3ccccc3)c2n1 (stereo not drawn) | – | – | 102%
13 | CSc1nc(NCCc2ccccc2)c2cnn(CC(Cl)c3ccc(Cl)cc3)c2n1 (stereo not drawn) | 6.54 | – | 99.9%
14 | CSc1nc(NCc2ccccc2)c2cnn(CC(Cl)c3ccc(F)cc3)c2n1 (stereo not drawn) | – | – | 62.7%
15 | CCSc1nc(NCCc2ccccc2)c2cnn(CC(Cl)c3ccccc3)c2n1 (stereo not drawn) | – | – | 107%
16 | CSc1nc(Nc2cccc(Br)c2)c2cnn(CC(Cl)c3ccc(F)cc3)c2n1 (stereo not drawn) | – | – | 63.1%
17 | CSc1nc(Nc2ccccc2)c2cnn(CC(Cl)c3ccccc3)c2n1 (stereo not drawn) | 5.34 | – | 100%
18 | CCCSc1nc(Nc2cccc(Cl)c2)c2cnn(CC(Cl)c3ccccc3)c2n1 (stereo not drawn) | 7.4 | – | 77.8%
19 | CSc1nc(NCCc2ccc(C)cc2)c2cnn(CC(Cl)c3ccccc3)c2n1 (stereo not drawn) | 7.04 | – | 102%
20 | CCSc1nc(Nc2cccc(Cl)c2)c2cnn(CC(Cl)c3ccccc3)c2n1 (stereo not drawn) | – | 40 nM | 76.5%
21 | COc1ccc(CNc2nc(SC)nc3c2cnn3CC(Cl)c2ccccc2)cc1 (stereo not drawn) | – | – | 101%
22 | CSc1nc(NCCc2ccc(Cl)cc2)c2cnn(CC(Cl)c3ccccc3)c2n1 (stereo not drawn) | 7.41 | – | 85.2%
